Laboratory results reported in PubChem BioAssay AID248 (DTP/NCI, 2004).
Where “and” joins values, the source holds several entries; their conditions need not be identical. Equal entries are not always repeated. Toxic doses and inconclusive results are not listed. Cut-off read from the data, not from the text of the source: active = T/C of 150% or more; inactive = T/C below 125%.

System: L1210 leukemia ip in BDF1 mice, survival T/C
Assay: NCI In Vivo Anticancer Drug Screen. Data for tumor model L1210 Leukemia (intraperitoneal) in B6D2F1 (BDF1) mice
Settings: endpoint: mean survival time, higher = longer survival
Summary of the method: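 Tumor was transplanted into mice, which were then dosed with test compound or vehicle alone. Survival was recorded for each group, and the treated figure was expressed relative to the control figure.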

[1] = dose: 100.0 mg/kg/injection, schedule: Q01DX009 (ip), vehicle: saline with Tween-80
[2] = dose: 200.0 mg/kg/injection, schedule: Q01DX009 (ip), vehicle: saline with Tween-80
[3] = dose: 400.0 mg/kg/injection, schedule: Q01DX009 (ip), vehicle: saline with Tween-80
[4] = dose: 100.0 mg/kg/injection, schedule: Q04DX003 (ip), vehicle: saline with Tween-80
[5] = dose: 200.0 mg/kg/injection, schedule: Q04DX003 (ip), vehicle: saline with Tween-80
[6] = dose: 400.0 mg/kg/injection, schedule: Q04DX003 (ip), vehicle: saline with Tween-80

Measured: T/C

CN1C(=O)C(Br)=C(Br)C1=O
inactive: dose: 5.0 mg/kg/injection, schedule: Q01DX001 (ip), vehicle: saline 97 % of control | dose: 10.0 mg/kg/injection, schedule: Q01DX001 (ip), vehicle: saline 94 % of control

O=C(Oc1ccccc1)C1OC1c1ccccc1 (stereo unspecified)
inactive: dose: 100.0 mg/kg/injection, schedule: Q04DX003 (ip), vehicle: alcohol 103 % of control | dose: 200.0 mg/kg/injection, schedule: Q04DX003 (ip), vehicle: alcohol 98 % of control | dose: 400.0 mg/kg/injection, schedule: Q04DX003 (ip), vehicle: alcohol 105 % of control

CC(NC(=O)Oc1cccc(NC(=O)N(C)C)c1)C(C)(C)C (stereo unspecified)
inactive: [1] 109 % of control | [2] 96 % of control | [3] 98 % of control

C/C(=N\NC(N)=O)C1=C(O)C(C(C)C)NC1=O (stereo unspecified)
inactive: dose: 50.0 mg/kg/injection, schedule: Q01DX001 (ip), vehicle: carboxymethylcellulose (CMC) 101 % of control | dose: 100.0 mg/kg/injection, schedule: Q01DX001 (ip), vehicle: carboxymethylcellulose (CMC) 106 % of control | dose: 200.0 mg/kg/injection, schedule: Q01DX001 (ip), vehicle: carboxymethylcellulose (CMC) 103 % of control | dose: 400.0 mg/kg/injection, schedule: Q01DX001 (ip), vehicle: carboxymethylcellulose (CMC) 109 % of control

CCCCCCCCCCCC(=O)CC
inactive: dose: 50.0 mg/kg/injection, schedule: Q01DX009 (ip), vehicle: saline with Tween-80 96 % of control | [1] 100 % of control | [4] 98 % of control | [2] 92 % of control and 93 % of control | [5] 103 % of control | [3] 94 % of control | [6] 98 % of control

Cc1cccc2c1sc1c(C)cc(C(=O)CCC(=O)O)cc12
inactive: dose: 100.0 mg/kg/injection, schedule: Q01DX001 (ip), vehicle: saline 94 % of control | dose: 200.0 mg/kg/injection, schedule: Q01DX001 (ip), vehicle: saline 89 % of control | dose: 400.0 mg/kg/injection, schedule: Q01DX001 (ip), vehicle: saline 97 % of control

C1CCc2c(c3c(c4c2CCCC4)CCCC3)C1
inactive: dose: 100.0 mg/kg/injection, schedule: Q04DX002 (ip), vehicle: Klucel (hydroxypropylcellulose) (HPC) 100 % of control | dose: 200.0 mg/kg/injection, schedule: Q04DX002 (ip), vehicle: Klucel (hydroxypropylcellulose) (HPC) 93 % of control | dose: 400.0 mg/kg/injection, schedule: Q04DX002 (ip), vehicle: Klucel (hydroxypropylcellulose) (HPC) 97 % of control

CCN(CC)Cc1cc(Nc2ncnc3[nH]c(C)c(C)c23)ccc1O
inactive: dose: 12.5 mg/kg/injection, schedule: Q04DX002 (ip), vehicle: saline with Tween-80 98 % of control | dose: 25.0 mg/kg/injection, schedule: Q04DX002 (ip), vehicle: saline with Tween-80 94 % of control | dose: 50.0 mg/kg/injection, schedule: Q04DX002 (ip), vehicle: saline with Tween-80 88 % of control

O=NN(CCCl)C(=O)NC1CCC(CCl)CC1 (stereo unspecified)
active: dose: 12.0 mg/kg/injection, schedule: Q01DX001 (ip), vehicle: saline with Tween-80 181 % of control | dose: 18.0 mg/kg/injection, schedule: Q01DX001 (ip), vehicle: saline with Tween-80 183 % of control | dose: 26.0 mg/kg/injection, schedule: Q01DX001 (ip), vehicle: saline with Tween-80 320 % of control | dose: 40.0 mg/kg/injection, schedule: Q01DX001 (ip), vehicle: saline with Tween-80 310 % of control | dose: 60.0 mg/kg/injection, schedule: Q01DX001 (ip), vehicle: saline with Tween-80 372 % of control | dose: 90.0 mg/kg/injection, schedule: Q01DX001 (ip), vehicle: saline with Tween-80 297 % of control | dose: 200.0 mg/kg/injection, schedule: Q01DX001 (ip), vehicle: saline with Tween-80 187 % of control
inactive: dose: 8.0 mg/kg/injection, schedule: Q01DX001 (ip), vehicle: saline with Tween-80 114 % of control

S=c1[nH]cc2cnccn12
inactive: [1] 103 % of control | [4] 98 % of control | [2] 100 % of control | [5] 100 % of control | [6] 89 % of control
